This note sets out measurements from patent publication US10328088B2, “Use of aminosalicylates in diarrhoea-predominent irritable bowel syndrome” (Salix Pharmaceuticals, Inc., priority 2004, dated 2019).

Type in all cases: in vivo, human
Assay [1] deals with diarrhoea-predominant IBS. Description: Example 1: case of a person with severe diarrhoea-predominant IBS treated with balsalazide. From the text:
A person presented with a 7 year history of worsening diarrhoea (watery 6-12/day), urgency, cramping lower abdominal pain and at times faecal incontinence. There was no clear preceding illness nor antibiotic usage. They underwent numerous investigations, beginning with general practitioners ordering stool cultures, blood tests, ultrasound and CT scan examinations. With the passage of time they noticed that some foods caused worsening of symptoms, and was told by a naturopath that they suffered from a ‘food allergy’. […] They consulted a gastroenterologist and underwent endoscopic small bowel biopsy—where coeliac disease was excluded histologically—and colonoscopy with biopsy and further stool cultures. All tests being non-diagnostic, they were told they had severe, diarrhoea-predominant IBS. They continued on the restricted diet, and was referred for counselling and hypnotherapy. Over the next 6-12 months they progressively lost weight with only modest control of their symptoms by the diet. Within 2 weeks of commencing increasing doses of balsalazide from 1.5 gram to 3 grams per day, the stools progressively formed up, with frequency reducing to 1-2 formed stools per day. […] By 6 weeks of treatment they regained 7 kg in weight.

Another assay has as its system chronic IBS. Nature of the assay: Example 2: case of a person with chronic IBS (diarrhoea with intervening constipation, diverticulosis) treated with balsalazide. An excerpt:
A person complained of greater than 20 years of diarrhoea with intervening constipation, abdominal bloating, pains, flatulence, and nausea with acid reflux. They had undergone several complete medical investigations including stool tests, blood tests, X-ray imaging and colonoscopic examinations, with negative findings apart from the presence of diverticulosis. Diagnosed as chronic IBS they tried increasing fibre intake, controlling stress, and changing their diet, all to no avail. On commencing balsalazide 1.5 g/day and pushing the dose upwards to 4.5 g/d their diarrhoea, pains, flatulence and nausea abated. At the higher dose the constipation also disappeared.

Assay [2] relates to diarrhoea predominant Irritable Bowel Syndrome. Nature of the assay: Example 3: case of a person with diarrhoea predominant Irritable Bowel Syndrome treated with Salofalk granules, then balsalazide.
The subject of assay [3] is diarrhoea-predominant Irritable Bowel Syndrome. Description: Inventor's clinical experience in patients with diarrhoea-predominant IBS. Particulars: from clinical experience. From the text:
Balsalazide is better than mesalazine (5-ASA) in controlling and may inhibit even more powerfully the symptoms of diarrhoea-predominant IBS and associated conditions enumerated below. This is unexpected. It was not expected that balsalazide would be capable of treating diarrhoea-predominant IBS as it is a very different molecule to the conventional 4ASA and 5ASA compounds. […] It is noted that the side chain together with the 5-ASA potentiates inhibition of gas production, cramping, fluid secretion, and mucus production. It appears the large side chain apart from the salicylate component is effective in treating diarrhoea. In addition, in a subgroup of patients the constipation component of IBS may respond to the same treatment.

The mark [4] stands for this setting: balsalazide 1.5 gram to 3 grams per day.

In the case of `O=C(O)CCNC(=O)c1ccc(/N=N/c2ccc(O)c(C(=O)O)c2)cc1` [balsalazide, 5[(1E)-[4-[[(2-carboxyethyl)amino]carbonyl]phenyl]azo]-2-hydroxybenzoic acid], in assay [1] (setting [4]), the pain entry was “completely abolished” and the urgency result is given as “disappaeared”. For the same molecule, the weight regained in assay [1] (by 6 weeks of treatment) came to 7 kg. For the same molecule, the “symptom status at follow up” value in assay [1] (on balsalazide at 26 weeks) is “virtually completely symptom-free”. Further, in assay [1] (within 2 weeks of increasing doses from 1.5 gram to 3 grams per day, baseline watery 6-12/day), the stool frequency is 1-2 formed stools per day. The durability of improvements entry with chronic IBS (at 26 weeks) is reported as “remain sustained”. Further, the constipation result in the assay on chronic IBS (at the higher dose (4.5 g/d)) is given as “disappeared”. Moreover, in the assay on chronic IBS (balsalazide 1.5 g/day pushed upwards to 4.5 g/d), the “diarrhoea, pains, flatulence and nausea” value was “abated”. The improvement in symptoms result in assay [2] (750 mg twice daily slowly raised to 1.5 grams twice daily) is given as “dramatic”. In assay [2] (3 grams twice daily), the stool frequency result is given as “two”, the symptoms result is reported as “largely disappeared” and the urgency or flatulence result is “without any urgency or flatulence”. Moreover, the durability of improvements entry in assay [2] (at four months follow up) was “sustained”. Besides, in assay [3], the “suppression of symptoms of diarrhoea-predominant Irritable Bowel Syndrome compared with conventional 4ASA and 5ASA compounds” value is given as “much more powerful”.
